{"source": "patent US7879914B2", "about": "“Methods for treating viral infections using polyamine analogs” (Pathlogica LLC, priority 2005, dated 2011)", "system": "SIVmac251", "experiment": "SIVmac251-infected, CD8-depleted rhesus macaques, escalating doses", "type": "in vivo, rhesus macaque", "protocol": "For these experiments, rhesus macaques were infected with SIVmac251 and depleted of CD8+ T lymphocytes by administration of a humanized CD8-depleting antibody. […] These monkeys were then treated with escalating doses of MGBG.\nThe animals were treated with MGBG (PA-001) beginning five days post infection (p.i.) with 200 mg/m^2 PA-001, and then treated 7 and 14 days later with 300 mg/m^2 and 400 mg/m^2, respectively of PA-001.\nRhesus macaques similar to those described in Example 9 were used for these studies. An SIVmac251-infected, CD8-depleted monkey was treated with PA-001 (MGBG) beginning five days p.i. with 200 mg/m^2 PA-001, and then treated 7 and 14 days later with 300 mg/m^2 and 400 mg/m^2, respectively of PA-001. A control monkey was SIVmac251-infected and CD8-depleted, but not treated with PA-001. Blood macrophages from control and treated monkeys were sorted every week into three subsets: CD14+/16−, CD14+/16+ and CD14−/16+ where CD14− indicates a low level of CD14 expression. Quantitative SIV PCR analysis of the sorted subsets was subsequently performed.", "data": [{"smiles": "CC(/C=N/NC(=N)N)=N\\NC(=N)N", "note": "[MGBG]", "values": [{"measurement": "levels of CD14+CD16+ monocytes in blood", "setting": "200, 300, 400 mg/m^2 from five days p.i., by day 21 p.i.", "value": "depleted below detectable levels"}, {"measurement": "perivascular cuffs and virus in the CNS", "setting": "21 days p.i., preliminary histopathological analysis", "value": "did not have perivascular cuffs or detectable virus"}, {"measurement": "SIV DNA in sorted blood macrophage subsets", "setting": "after the first and second dose, quantitative SIV PCR", "value": "no longer had any detectable SIV DNA"}, {"measurement": "decrease in Mac387 stained monocyte/macrophage cell number in lymph node", "setting": "compared to untreated animals", "value": "50-80%"}, {"measurement": "plasma virus versus control", "setting": "treated animals vs untreated control", "value": "did not show significant differences"}]}]}
